Consider 16 molecules from ChEMBL document CHEMBL4049458, “Structure-Based Optimization of Thiophene[3,2-d]pyrimidine Derivatives as Potent HIV-1 Non-nucleoside Reverse Transcriptase Inhibitors with Improved Potency against Resistance-Associated Variants” (J Med Chem, 2017).

Series [1] has as its system Human immunodeficiency virus 2. Briefly: Antiviral activity against HIV2 ROD harboring reverse transcriptase infected in human MT4 cells assessed as protection against virus induced cytotoxicity after 5 days by MTT assay. In kind it is functional, cell-based. The following applies: Human immunodeficiency virus 2, ISOLATE ROD, MT4, 120 h.
A short description of series [2]: Selectivity index, ratio of CC50 for human MT4 cells to EC50 for reverse transcriptase Y181C mutant in human MT4 cells infected HIV1 3B. The following applies: MT4 cells.
Series [3] concerns Human immunodeficiency virus 1. Briefly: Antiviral activity against wild type HIV1 3B harboring reverse transcriptase infected in human MT4 cells assessed as protection against virus induced cytotoxicity after 5 days by MTT assay. In kind it is functional, cell-based. The following applies: Human immunodeficiency virus 1, 3B, MT4, 120 h.
A short description of series [4]: Selectivity index, ratio of CC50 for human MT4 cells to EC50 for reverse transcriptase Y188L mutant in human MT4 cells infected HIV1 3B. Particulars: MT4 cells.
A short description of series [5]: Selectivity index, ratio of CC50 for human MT4 cells to EC50 for reverse transcriptase K103N mutant in human MT4 cells infected HIV1 3B. The following applies: MT4 cells.
The nature of series [6]: Selectivity index, ratio of CC50 for human MT4 cells to EC50 for reverse transcriptase L100I mutant in human MT4 cells infected HIV1 3B. The following applies: MT4 cells.
Series [7] in a line: Selectivity index, ratio of CC50 for human MT4 cells to EC50 for HIV1 RES056 reverse transcriptase K103N/Y181C double mutant infected in human MT4 cells. The following applies: MT4 cells.
The nature of series [8]: Cytotoxicity against human MT4 cells assessed as cell viability after 5 days by MTT assay. In kind it is cell-based.
Series [9] is described as follows: Selectivity index, ratio of CC50 for human MT4 cells to EC50 for reverse transcriptase F227L/V106A double mutant in human MT4 cells infected HIV1 3B. The following applies: MT4 cells.
Series [10] is described as follows: Selectivity index, ratio of CC50 for human MT4 cells to EC50 for reverse transcriptase E138K mutant in human MT4 cells infected HIV1 3B. Particulars: MT4 cells.
Series [11] in a line: Selectivity index, ratio of CC50 for human MT4 cells to EC50 for wild type HIV1 3B harboring reverse transcriptase infected in human MT4 cells. Particulars: MT4 cells.

As for `Cc1cc(C#N)cc(C)c1Oc1nc(NC2CCN(Cc3ccc(S(N)(=O)=O)cc3)CC2C(=O)O)nc2ccsc12` (stereo unspecified), the half-maximal effective concentration (EC50) in [1] is more than 27600 nM; in series [3] it was 723 nM. For the same molecule, the selectivity ratio is 8 in [2]; 9 in series [4]; 33 in series [5]; 17 in series [6]; less than 1 in series [7]; 11 in [9]. For the same molecule, the values for the selectivity ratio in series [10] and in series [11] were 8 and 38, respectively. Further, the CC50 at 120 h in series [8] came out at 27600 nM.

`Cc1cc(C#N)cc(C)c1Oc1nc(NC2CCC(NCc3cccc(C(F)(F)F)c3)CC2)nc2ccsc12` (stereo unspecified): the EC50 in series [1] is more than 707 nM; in series [3] it was 174 nM. The selectivity ratio in [2], in series [4], in [5], in [6], in series [7] and in series [9] was less than 1 in each case. Besides, the selectivity ratio was less than 1 in series [10] and 4 in [11]. For the same molecule, the cytotoxic concentration (CC50) at 120 h in [8] came out at 707 nM.

On to `Cc1cc(C#N)cc(C)c1Oc1nc(NC2CCN(Cc3cccc(C(N)=O)c3)CC2)nc2sccc12`, for which the EC50 is more than 48700 nM in [1] and 5.17 nM in series [3]. Further, the selectivity ratio in series [2] is more than 5300; in [4] it was more than 2870; in series [5], more than 5490; in series [6], more than 4630; in [7], more than 10; in series [9] it was more than 1930. Besides, the selectivity ratio in series [10] is more than 5610; in series [11], more than 9420. Also, the CC50 at 120 h in [8] is more than 48700 nM.

With `CCOC(=O)c1ccc(CN2CCC(Nc3nc(Oc4c(C)cc(/C=C/C#N)cc4C)c4sccc4n3)CC2)cc1`, the half-maximal effective concentration (EC50) was more than 3610 nM in [1] and 14.6 nM in series [3]. The selectivity ratio in series [2] is not below 110; in series [4], not below 22; in series [5] it was not below 273; in series [6] it was not below 134; in series [7] it was not below 22; in series [9], not below 42. The selectivity ratio is not below 96 in series [10] and not below 247 in [11]. For the same molecule, the CC50 at 120 h in series [8] is not below 3610 nM.

Consider `Cc1cc(C#N)cc(C)c1Oc1nc(NC2CCC(NCc3ccccc3)CC2)nc2ccsc12` (stereo unspecified), for which the 50% effective concentration (EC50) in [1] is more than 2970 nM; in series [3], 230 nM. In addition, the selectivity ratio in [2] is less than 1; in series [4], less than 1; in [5], 4; in series [6], 3; in [7], less than 1; in series [9], 3. Also, the selectivity ratio in [10] was found to be 3; in [11], 13. Moreover, in [8], the CC50 at 120 h was determined as 2970 nM.

Turning to `Cc1cc(/C=C/C#N)cc(C)c1Oc1nc(NC2CCN(Cc3ccncc3)CC2)nc2ccsc12`, the values for the concentration giving a half-maximal response (EC50) in series [1] and in series [3] were more than 4780 nM and 3.34 nM, respectively. In addition, the selectivity ratio in series [2] came to 825; in series [4] it was 148; in series [5], 859; in series [6], 752; in series [7], 162; in series [9], 322. In addition, the selectivity ratio in series [10] came to 560; in series [11] it was 1430. For the same molecule, the CC50 at 120 h in series [8] was determined as 4780 nM.

`Cc1ccccc1CN1CCC(Nc2nc(Oc3c(C)cc(/C=C/C#N)cc3C)c3sccc3n2)CC1`: the half-maximal effective concentration (EC50) in [1] is more than 2830 nM; in series [3], 15.7 nM. For the same molecule, the selectivity ratio in series [2] is 33; in series [4], 16; in series [5] it was 114; in [6] it was 60; in [7], 3; in series [9] it was 46. The selectivity ratio in series [10] is 22; in [11], 180. Besides, the cytotoxic concentration (CC50) at 120 h in series [8] amounted to 2830 nM.

Turning to `Cc1cc(/C=C/C#N)cc(C)c1Oc1nc(NC2CCN(Cc3ccc(Cl)cc3)CC2)nc2ccsc12`, the EC50 in [1] is more than 3980 nM; in series [3], 25.6 nM. In addition, the selectivity ratio in series [2] was 51; in [4] it was 22; in series [5], 159; in series [6] it was 93; in series [7], 20; in series [9] it was 37. Moreover, the selectivity ratio in [10] worked out at 26; in [11], 156. In series [8], the cytotoxic concentration (CC50) at 120 h was found to be 3980 nM.

As to `Cc1cc(/C=C/C#N)cc(C)c1Oc1nc(NC2CCN(Cc3ccc(C#N)cc3)CC2)nc2ccsc12`, the EC50 is more than 2680 nM in [1] and 5.26 nM in series [3]. Also, the selectivity ratio in [2] stood at 86; in [4], 81; in series [5], 494; in [6], 364; in [7] it was 45; in series [9], 118. The values for the selectivity ratio in series [10] and in [11] were 91 and 509, respectively. The CC50 at 120 h in [8] was 2670 nM.

With `Cc1cc(C#N)cc(C)c1Oc1nc(NC2CCC(NCc3ccc(C#N)cc3)CC2)nc2ccsc12` (stereo unspecified), the EC50 in series [1] was more than 5150 nM; in [3], 3810 nM. The selectivity ratio was less than 1 in series [2]; not above 1 in series [4]; less than 1 in [5]; less than 1 in series [6]; less than 1 in series [7]; less than 1 in series [9]. In addition, the values for the selectivity ratio in series [10] and in series [11] were less than 1 and 1.3, respectively. The CC50 at 120 h in series [8] amounted to 5150 nM.

Turning to `Cc1cc(C#N)cc(C)c1Oc1nc(NC2CCN(Cc3ccc(C(N)=O)cc3)CC2)nc2sccc12`, the EC50 was more than 4930 nM in series [1] and 152 nM in [3]. Also, the selectivity ratio in series [2] is 20; in [4] it was less than 1; in series [5], 11; in series [6], 9; in [7], 3; in series [9] it was less than 1. The selectivity ratio in series [10] worked out at 6; in series [11] it was 32. Moreover, the half-maximal cytotoxic concentration (CC50) at 120 h in [8] turned out to be 4930 nM.

For the molecule `Cc1cc(C#N)cc(C)c1Oc1nc(NC2CCC(NCc3ccc(F)cc3)CC2)nc2ccsc12` (stereo unspecified), the EC50 in series [1] is more than 2760 nM; in series [3], 553 nM. The selectivity ratio in [2] is less than 1; in series [4] it was less than 1; in series [5], 3; in series [6] it was 3; in series [7], less than 1; in series [9], less than 1. Moreover, the selectivity ratio in series [10] is not above 2; in series [11], 5. Also, the 50% cytotoxic concentration (CC50) at 120 h in series [8] turned out to be 2760 nM.

In the case of `Cc1cc(/C=C/C#N)cc(C)c1Oc1nc(NC2CCN(Cc3cccc(C(N)=O)c3)CC2)nc2ccsc12`, the concentration giving a half-maximal response (EC50) in series [1] is more than 3530 nM; in [3], 3.26 nM. Besides, the selectivity ratio stood at 563 in series [2]; 129 in series [4]; 1190 in [5]; 689 in series [6]; 81 in series [7]; 448 in series [9]. The selectivity ratio in [10] amounted to 551; in series [11], 1080. In [8], the half-maximal cytotoxic concentration (CC50) at 120 h is 3530 nM.

As for `Cc1cc(/C=C/C#N)cc(C)c1Oc1nc(NC2CCN(Cc3ccccc3C#N)CC2)nc2ccsc12`, the concentration giving a half-maximal response (EC50) in series [1] is more than 2280 nM; in series [3] it was 9.66 nM. Also, the selectivity ratio was determined as 66 in series [2]; 18 in series [4]; 130 in series [5]; 151 in [6]; 7 in [7]; 60 in series [9]. In addition, the selectivity ratio in [10] came to 53; in series [11] it was 236. For the same molecule, the CC50 at 120 h in series [8] is 2280 nM.

For `Cc1cc(/C=C/C#N)cc(C)c1Oc1nc(NC2CCN(Cc3cccc(F)c3)CC2)nc2ccsc12`, the EC50 in [1] is more than 4760 nM; in [3], 9.73 nM. Besides, the selectivity ratio in series [2] worked out at 138; in series [4], 30; in [5] it was 226; in series [6], 216; in [7] it was 38; in [9], 84. In addition, the selectivity ratio in series [10] came out at 150; in [11] it was 489. Also, the half-maximal cytotoxic concentration (CC50) at 120 h in [8] is 4760 nM.

As for `Cc1cc(/C=C/C#N)cc(C)c1Oc1nc(NC2CCN(Cc3ccc(Br)cc3)CC2)nc2ccsc12`, the EC50 in series [1] is more than 6790 nM; in series [3] it was 28.3 nM. Also, the selectivity ratio in [2] amounted to 53; in series [4], 24; in series [5], 227; in series [6], 117; in [7], 44; in series [9], 42. Further, the selectivity ratio was found to be 44 in series [10] and 240 in [11]. In series [8], the CC50 at 120 h is 6790 nM.

A word on the EC50: it is the midpoint of the concentration-response curve. Usually CC50 stands for the concentration at which the toxic effect on the cells reaches its halfway point.
